Measured values from PubChem BioAssay AID2060341 (Molecular Pharmacology Branch, DTP, NCI, 2025).

Tested on: 327498-153-R-J2-PDC multicell spheroid viability
Test: Anticancer human tumor 327498-153-R-J2-PDC patient-derived uterine carcinosarcoma cell line growth inhibition [IpAb]
Details: for IC50: curve of first compound; for viability, T/C: stronger effect = lower value
How it was run: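 Multi-cell spheroids of 60% tumour cells, 25% HUVEC and 15% MSC in ultra-low-attachment U-bottom wells, treated with agents combined with ipatasertib or abemaciclib. Half-log ranges top out near clinical Cmax, or 10 microM when Cmax is unknown.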

[1] = second compound 0.01 µM, first compound 0.0316 µM
[2] = second compound 0.01 µM, first compound 0.1 µM
[3] = second compound 0.01 µM, first compound 0.316 µM
[4] = second compound 0.01 µM, first compound 1 µM
[5] = second compound 0.0316 µM, first compound 0.0316 µM
[6] = second compound 0.0316 µM, first compound 0.1 µM
[7] = second compound 0.0316 µM, first compound 0.316 µM
[8] = second compound 0.0316 µM, first compound 1 µM
[9] = second compound 0.1 µM, first compound 0.0316 µM
[10] = second compound 0.1 µM, first compound 0.1 µM
[11] = second compound 0.1 µM, first compound 0.316 µM
[12] = second compound 0.1 µM, first compound 1 µM
[13] = second compound 0.316 µM, first compound 0.0316 µM
[14] = second compound 0.316 µM, first compound 0.1 µM
[15] = second compound 0.316 µM, first compound 0.316 µM
[16] = second compound 0.316 µM, first compound 1 µM
[17] = second compound 1 µM, first compound 0.0316 µM
[18] = second compound 1 µM, first compound 0.1 µM
[19] = second compound 1 µM, first compound 0.316 µM
[20] = second compound 1 µM, first compound 1 µM
[21] = second compound 0.01 µM, first compound 3.16 µM
[22] = second compound 0.01 µM, first compound 10 µM
[23] = second compound 0.0316 µM, first compound 3.16 µM
[24] = second compound 0.0316 µM, first compound 10 µM
[25] = second compound 0.1 µM, first compound 3.16 µM
[26] = second compound 0.1 µM, first compound 10 µM
[27] = second compound 0.316 µM, first compound 3.16 µM
[28] = second compound 0.316 µM, first compound 10 µM
[29] = second compound 1 µM, first compound 3.16 µM
[30] = second compound 1 µM, first compound 10 µM
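Further: spheroids exposed to agents for 7 days.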
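Wherever viability, T/C is given: 100% = DMSO vehicle control viability.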

Compound | IC50 (second compound 0.01 µM) [nM] | IC50 (second compound 0.0316 µM) [nM] | IC50 (second compound 0.1 µM) [nM] | IC50 (second compound 0.316 µM) [nM] | IC50 (second compound 1 µM) [nM] | viability, T/C [1] [%] | viability, T/C [2] [%] | viability, T/C [3] [%] | viability, T/C [4] [%] | viability, T/C [5] [%] | viability, T/C [6] [%] | viability, T/C [7] [%] | viability, T/C [8] [%] | viability, T/C [9] [%] | viability, T/C [10] [%] | viability, T/C [11] [%] | viability, T/C [12] [%] | viability, T/C [13] [%] | viability, T/C [14] [%] | viability, T/C [15] [%] | other results
COc1c(OCCCN2CCOCC2)ccc2c3n(c(=NC(=O)c4cnc(N)nc4)nc12)CCN3 + CCN1CCN(Cc2ccc(Nc3ncc(F)c(-c4cc(F)c5nc(C)n(C(C)C)c5c4)n3)nc2)CC1 | 63.7 | 32.1 | 13.9 | 5.63 | 6.38 | 70.9 | 36.3 | 16.8 | 9.29 | 52.5 | 24.9 | 12.4 | 8.64 | 37.4 | 22.6 | 12.3 | 9.1 | 38 | 23.3 | 15.3 | viability, T/C (second compound 0.01 µM, first compound 0.00316 µM): 81.9%; viability, T/C (second compound 0.01 µM, first compound 0.01 µM): 78.5%; viability, T/C (second compound 0.0316 µM, first compound 0.00316 µM): 70.9%; viability, T/C (second compound 0.0316 µM, first compound 0.01 µM): 60.8%; viability, T/C (second compound 0.1 µM, first compound 0.00316 µM): 63%; viability, T/C (second compound 0.1 µM, first compound 0.01 µM): 55.5%; viability, T/C (second compound 0.316 µM, first compound 0.00316 µM): 51.6%; viability, T/C (second compound 0.316 µM, first compound 0.01 µM): 48.6%; viability, T/C [16]: 10.6%; viability, T/C (second compound 1 µM, first compound 0.00316 µM): 51.9%; viability, T/C (second compound 1 µM, first compound 0.01 µM): 49.2%; viability, T/C [17]: 39.8%; viability, T/C [18]: 26.6%; viability, T/C [19]: 17.7%; viability, T/C [20]: 10.6%
Cc1nc(NC(=O)N2CCCC2C(N)=O)sc1-c1ccnc(C(C)(C)C(F)(F)F)c1 (stereo not given) + CCN1CCN(Cc2ccc(Nc3ncc(F)c(-c4cc(F)c5nc(C)n(C(C)C)c5c4)n3)nc2)CC1 | 6390 | 1040 | 442 | 262 | 150 | 91.6 | 85.8 | 77 | 68.2 | 69.7 | 69.3 | 63.3 | 46.4 | 61.8 | 58.5 | 50.4 | 46 | 58 | 57.2 | 47.8 | viability, T/C [21]: 63%; viability, T/C [22]: 42.5%; viability, T/C [23]: 41.3%; viability, T/C [24]: 27.3%; viability, T/C [25]: 36.9%; viability, T/C [26]: 26%; viability, T/C [16]: 42.6%; viability, T/C [27]: 35.3%; viability, T/C [28]: 28.1%; viability, T/C [17]: 54%; viability, T/C [18]: 55.7%; viability, T/C [19]: 43.5%; viability, T/C [20]: 41.1%; viability, T/C [29]: 34.8%; viability, T/C [30]: 25.9%
Cn1nccc1Nc1nccc(-c2ccn(C(CO)c3ccc(Cl)c(F)c3)c(=O)c2)n1 (stereo not given) + CCN1CCN(Cc2ccc(Nc3ncc(F)c(-c4cc(F)c5nc(C)n(C(C)C)c5c4)n3)nc2)CC1 | 3680 | 1960 | 657 | < 31.6 | < 31.6 | 78 | 70.3 | 67 | 74.3 | 69.1 | 55.4 | 52.8 | 57.9 | 55.6 | 50 | 48.5 | 49.2 | 53.5 | 42.6 | 42.4 | viability, T/C [21]: 53.6%; viability, T/C [22]: 26.7%; viability, T/C [23]: 48%; viability, T/C [24]: 30.4%; viability, T/C [25]: 44%; viability, T/C [26]: 26.4%; viability, T/C [16]: 44.4%; viability, T/C [27]: 41.5%; viability, T/C [28]: 28.1%; viability, T/C [17]: 46.1%; viability, T/C [18]: 45.3%; viability, T/C [19]: 40.3%; viability, T/C [20]: 43.6%; viability, T/C [29]: 45.3%; viability, T/C [30]: 30.4%
